Experimental data reported in paper PMC7044277 (Nature Communications, 2020).
Several values for one entry are separate records, joined by “and”; a condition that tells them apart may be missing. Equal entries are not always repeated.

Assays:
[1] = target: DRD2 (D2 long receptor) wild-type (Homo sapiens, UniProt P14416); test: Radioligand competition binding, [3H]-N-methylspiperone, HEK293T membranes; settings: for Ki: DRD2, [3H]-methylspiperone (0.8-1.0 nM), read-out: Ki
[2] = target: T1, DRD2 (D2 long receptor) (Homo sapiens, UniProt P14416); test: Gαi/o-mediated cAMP inhibition (GloSensor split-luciferase cAMP reporter), HEK293T; assay type: cell-based; settings: for EC50: agonist, Gαi/o-mediated cAMP inhibition, read-out: EC50 ± SEM; for Response, Fig_S11b dose-response: individual replicates;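 for all read-outs here: compounds applied 15 min at room temperature, then luciferin plus 400 nM isoproterenol to raise cAMP through endogenous β2-adrenergic receptors, luminescence read 15 min later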
[3] = target: DRD3 (Homo sapiens, UniProt P35462); test: β-arrestin2 recruitment (Tango); assay type: cell-based; settings: DRD3, Tango; for EC50: read-out: EC50 ± SEM
[4] = target: DRD3 wild-type (Homo sapiens, UniProt P35462); test: Radioligand competition binding, [3H]-N-methylspiperone; settings: for Ki: DRD3, [3H]-methylspiperone (0.8-1.0 nM), read-out: Ki; for pKi ± SEM: DRD3 wild-type
[5] = target: DRD2 F1103.28A (Homo sapiens, UniProt P14416, F110A); assay type: binding; design: expressed in transfected cells; host or cells: HEK293T (ATCC CRL-11268); settings: DRD2 F1103.28A; for Ki: read-out: Ki
[6] = target: T2, DRD4 (D4.4 variant) (Homo sapiens, UniProt P21917); test: β-arrestin2 recruitment (Tango); assay type: cell-based; settings: DRD4; Tango; read-out: EC50 ± SEM
T2 sequence (P21917 1-419): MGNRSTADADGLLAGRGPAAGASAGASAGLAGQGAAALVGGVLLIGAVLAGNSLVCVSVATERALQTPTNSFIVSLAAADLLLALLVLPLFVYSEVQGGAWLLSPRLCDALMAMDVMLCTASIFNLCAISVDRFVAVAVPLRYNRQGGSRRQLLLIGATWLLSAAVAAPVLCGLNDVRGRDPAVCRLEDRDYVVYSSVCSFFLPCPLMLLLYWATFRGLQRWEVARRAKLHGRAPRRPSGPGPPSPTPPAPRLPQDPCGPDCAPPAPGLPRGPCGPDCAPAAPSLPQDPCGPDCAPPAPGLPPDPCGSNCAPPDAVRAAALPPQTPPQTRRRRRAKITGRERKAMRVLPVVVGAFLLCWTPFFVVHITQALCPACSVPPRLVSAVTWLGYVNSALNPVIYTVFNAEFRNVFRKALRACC

[7] = target: T3, DRD4 (D4.4 variant) wild-type (Homo sapiens, UniProt P21917); test: Radioligand competition binding, [3H]-N-methylspiperone; settings: DRD4; [3H]-methylspiperone (0.8-1.0 nM); read-out: Ki
T3 sequence (P21917 1-419): T2 sequence (P21917 1-419)

[8] = target: T2, DRD4 (D4.4 variant); test: Gαi/o-mediated cAMP inhibition (GloSensor); assay type: cell-based; settings: DRD4; agonist, cAMP inhibition; read-out: EC50 ± SEM
[9] = target: T1, DRD2 (D2 long receptor); test: β-arrestin2 recruitment (Tango), HTLA cells; assay type: cell-based; settings: for Emax relative to quinpirole response / EC50: DRD2; for Emax relative to quinpirole response: Tango; for EC50: β-arrestin2 recruitment (Tango), read-out: EC50 ± SEM; for Response, Fig_S11c dose-response: individual replicates

T1 sequence (P14416 whole entry): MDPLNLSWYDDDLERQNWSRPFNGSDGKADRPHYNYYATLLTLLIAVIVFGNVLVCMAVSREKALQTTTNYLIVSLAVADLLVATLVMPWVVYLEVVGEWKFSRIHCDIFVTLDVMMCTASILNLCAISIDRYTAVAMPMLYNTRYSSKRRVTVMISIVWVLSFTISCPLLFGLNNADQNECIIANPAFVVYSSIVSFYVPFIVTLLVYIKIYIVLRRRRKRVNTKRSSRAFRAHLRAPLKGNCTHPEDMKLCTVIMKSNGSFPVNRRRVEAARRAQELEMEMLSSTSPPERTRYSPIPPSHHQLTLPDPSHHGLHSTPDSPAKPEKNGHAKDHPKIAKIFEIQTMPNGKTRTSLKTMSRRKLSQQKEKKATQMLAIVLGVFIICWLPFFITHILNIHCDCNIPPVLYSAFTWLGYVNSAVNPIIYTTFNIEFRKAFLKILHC
Sequence of DRD2 (D2 long receptor) wild-type (P14416 whole entry): as above
Sequence of DRD3 (P35462 whole entry): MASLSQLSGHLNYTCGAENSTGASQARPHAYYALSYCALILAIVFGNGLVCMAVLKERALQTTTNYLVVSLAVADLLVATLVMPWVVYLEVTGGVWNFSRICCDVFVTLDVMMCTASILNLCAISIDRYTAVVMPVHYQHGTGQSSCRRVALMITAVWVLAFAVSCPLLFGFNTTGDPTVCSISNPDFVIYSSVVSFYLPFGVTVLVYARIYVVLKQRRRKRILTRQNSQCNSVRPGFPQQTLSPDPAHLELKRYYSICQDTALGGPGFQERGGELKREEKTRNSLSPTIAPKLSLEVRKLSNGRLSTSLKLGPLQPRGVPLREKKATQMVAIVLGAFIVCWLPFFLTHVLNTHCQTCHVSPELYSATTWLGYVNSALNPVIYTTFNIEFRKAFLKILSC
Sequence of DRD3 wild-type (P35462 whole entry): as above
Sequence of DRD2 F1103.28A (P14416 whole entry F110A): as the sequence (P14416 whole entry) above, with F110A counted along it

SMILES: COc1cccc2cc(C(C)NCC3(O)CCCCC3)oc12.Cl (centres unmarked) [O3LE6]
- Ki [1]: 4.78 µM
- pKi ± SEM ([1]; DRD2 wild-type): 5.32±0.22
- EC50 ([2]; DRD2): 0.00538 ± 0.00115 µM
- Emax relative to quinpirole response ([2]; DRD2, cAMP inhibition): 91.62%
- Response, Fig_S11b dose-response ([2]; Log[Drug] -5): 91.2746 and 93.268 and 92.0221 and 94.9982 and 95.9757 and 91.0458 and 94.8288 and 96.7238 and 94.4943
- Response, Fig_S11b dose-response ([2]; Log[Drug] -5.52): 84.7131 and 82.1661 and 88.7829 and 90.1533 and 94.7432 and 84.076 and 96.9467 and 103.412 and 92.2649
- Response, Fig_S11b dose-response ([2]; Log[Drug] -6): 91.1916 and 89.8903 and 94.4031 and 97.8031 and 85.4785 and 88.6659 and 101.461 and 101.183 and 85.6322
- Response, Fig_S11b dose-response ([2]; Log[Drug] -6.52): 79.2314 and 90.7486 and 80.9756 and 96.6556 and 102.308 and 66.8216 and 90.3141 and 94.5501 and 81.1733
- Response, Fig_S11b dose-response ([2]; Log[Drug] -7): 93.1296 and 79.0099 and 76.7951 and 89.8559 and 81.4411 and 87.5184 and 97.0582 and 96.7796 and 87.8617
- Response, Fig_S11b dose-response ([2]; Log[Drug] -7.52): 73.6389 and 59.4361 and 66.496 and 84.9685 and 73.1539 and 73.1114 and 79.2783 and 81.1733 and 101.35
- Response, Fig_S11b dose-response ([2]; Log[Drug] -8): 62.703 and 59.1593 and 45.4826 and 64.1867 and 54.9645 and 52.4996 and 72.7571 and 85.8552 and 67.9638
- Response, Fig_S11b dose-response ([2]; Log[Drug] -8.52): 23.5556 and 18.5998 and 3.594 and 27.9779 and 38.8575 and 46.6347 and 39.4267 and 57.0952 and 34.8006
- Response, Fig_S11b dose-response ([2]; Log[Drug] -9): 24.2477 and 23.1957 and 12.4536 and 22.6655 and 22.9205 and 23.0055 and 26.2172 and 30.5646 and 12.7847
- Response, Fig_S11b dose-response ([2]; Log[Drug] -10.52): -0.1987 and -7.8123
- Response, Fig_S11b dose-response ([2]; Log[Drug] -11): 6.197 and 12.6784 and -7.6785 and 0.5663
- Response, Fig_S11b dose-response ([2]; Log[Drug] -11.52): -9.1412 and 3.4 and -7.0575 and 6.319
- Response, Fig_S11b dose-response ([2]; Log[Drug] -12): -5.1267 and 0.6872 and -14.1523 and 6.559 and 2.691 and 2.479 and -11.9066 and 21.591 and -2.8216
- Emax relative to quinpirole response [3]: 80.01%
- EC50 [3]: 5.48 ± 3.94 µM
- Ki [4]: 1.07 µM
- pKi ± SEM [4]: 5.97±0.13
- pKi ± SEM [5]: 5.49±0.16
- Ki [5]: 3.24 µM
- EC50 [6]: > 10 µM
- Ki [7]: > 10 µM
- EC50 [8]: > 10 µM
- Emax relative to quinpirole response [9]: 109.80%
- EC50 [9]: 0.166 ± 0.0764 µM
- response, Fig_S11c dose-response source data ([9]; Fig_S11c, Log[Drug] -5, replicate values): 121.198 and 127.001 and 100.932 and 110.321 and 113.709 and 113.34 and 97.1155
- Response, Fig_S11c dose-response ([9]; Log[Drug] -6.52): 92.1418 and 88.9307
- Response, Fig_S11c dose-response ([9]; Log[Drug] -7): 77.394 and 77.7575 and 68.5542 and 65.6395 and 57.0787 and 60.1228 and 51.2599 and 46.3298
- Response, Fig_S11c dose-response ([9]; Log[Drug] -7.52): 38.329 and 41.6231 and 33.61 and 32.4962 and 32.299 and 34.1126 and 16.8232 and 31.0553 and 35.575
- Response, Fig_S11c dose-response ([9]; Log[Drug] -8): 11.9901 and 12.2692 and 10.2755 and 10.8849 and 10.4485 and 8.443 and 10.7171 and 9.707 and 5.469
- Response, Fig_S11c dose-response ([9]; Log[Drug] -8.52): 3.649 and 3.804 and 4.186 and 3.535 and 4.03 and 2.927 and 1.899 and 5.413 and 2.845
- Response, Fig_S11c dose-response ([9]; Log[Drug] -9): 2.6531 and 2.675 and 3.049 and 2.914 and 2.704 and 2.807 and 3.034 (2×) and 2.494
- Response, Fig_S11c dose-response ([9]; Log[Drug] -9.52): 2.467 and 2.869 and 2.678 and 2.37 and 2.33 and 2.2184 and 1.931 and 2.13 and 2.319
- Response, Fig_S11c dose-response ([9]; Log[Drug] -10): 2.843 and 2.654 and 2.976 and 2.168 and 2.347 and 2.222 and 3.804 and 1.194 and 2.499
- Response, Fig_S11c dose-response ([9]; Log[Drug] -10.52): 2.259 and 2.282 and 2.549 and 2.128 and 2.141 (2×) and 0.6309 and 3.246 and 2.4849
- Response, Fig_S11c dose-response ([9]; Log[Drug] -11): 2.232 and 3.428 and 2.336 and 2.237 and 2.197 and 2.087 and 5.0906 and 1.927 and 3.601
- Response, Fig_S11c dose-response ([9]; Log[Drug] -11.52): 2.2032 and 3.321 and 2.444 and 2.452 and 2.181 and 2.306 and 0.82 and 1.028 and 2.688
- Response, Fig_S11c dose-response ([9]; Log[Drug] -12): 2.5295 and 2.339 and 2.21 and 2.47 and 2.197 and 2.157 and 4.362 and 2.319 and 1.955

SMILES: CCOc1cccc2cc(C(C)NCc3ccccc3)oc12.Cl (centres unmarked) [O4LE9]
- Ki [1]: > 10 µM
- EC50 ([2]; DRD2): > 10 µM
- EC50 [3]: > 10 µM
- Ki [4]: 5.88 µM
- pKi ± SEM [4]: 5.23±0.25
- pKi ± SEM [5]: 5.28±0.02
- Ki [5]: 5.25 µM
- EC50 [6]: > 10 µM
- Ki [7]: > 10 µM
- EC50 [8]: > 10 µM
- Emax relative to quinpirole response [9]: 19.73%
- EC50 [9]: 5.37 ± 0.964 µM
